# Literature values, collected in patent publication US20100048608A1, “Histone Deacetylase Inhibitors for the Treatment of Ocular Neovascular or Edematous Disorders and Diseases” (ALCON, INC., priority 2002, published 2010).
# How the values were obtained:
# [1] = system: cancer cell; conditions: Munster et al. 2001
# [2] = system: tumors; conditions: Butler et al. 2000
# [3] = phase I clinical trials; Kelly et al. 2001
# [4] = system: cancer cell; conditions: Butler et al. 2002
# [5] = system: corneal neovascularization; conditions: in combination with a beta cyclodextrin; Li et al. 1991
structure (smiles),measurement,setting,value
"O=C(CCCCCCC(=O)Nc1ccccc1)NO [SAHA, suberoylanilide hydroxamic acid]",induction of cancer cell differentiation,[1],potent inducer of cancer cell differentiation
same,effect on tumors in animal models,[2],shrink tumors in animal models
same,dose-limiting toxicity,[3],almost no dose-limiting toxicity
same,suppression of white blood cell production,[3],no suppression of white blood cell production
same,cancer cell growth in vitro,[4],arrest cancer cell growth in vitro
"C[C@@H]1C[C@H]2[C@@H]3C[C@H](F)C4=CC(=O)CC[C@]4(C)C3=CC[C@]2(C)[C@@]1(O)C(=O)CO [U-72,745G]",inhibition of corneal neovascularization,[5],inhibit corneal neovascularization
C[C@]12CCC(=O)C=C1CC[C@@H]1[C@@H]2[C@@H](O)C[C@@]2(C)[C@H]1CC[C@]2(O)C(=O)CO [hydrocortisone],inhibition of corneal neovascularization,[5],inhibit corneal neovascularization
C[C@]12CC[C@@H](O)C[C@H]1CC[C@@H]1[C@@H]2CC[C@@]2(C)[C@H]1CC[C@]2(O)C(=O)CO [tetrahydrocortisol-S],inhibition of corneal neovascularization,[5],inhibit corneal neovascularization
